Experimental data as given in ChEMBL document CHEMBL4184210, “Optimization of novel monobactams with activity against carbapenem-resistant Enterobacteriaceae - Identification of LYS228” (Bioorg Med Chem Lett, 2018).
Converted amounts (≈) assume the structure as drawn.

Key:
Escherichia coli [1] = assay: Antimicrobial activity against Escherichia coli expressing beta-lactamase KPC-2 by CLSI broth microdilution method; format: functional
Escherichia coli [2] = assay: Antimicrobial activity against Escherichia coli expressing beta-lactamase NDM-1 by CLSI broth microdilution method; format: functional
[3] = Chemical stability in pH 7.4 potassium phosphate buffer assessed as half life for compound hydrolysis at 37 degC by UPLC and mass spectrometry; format: physicochemical
Pseudomonas aeruginosa [4] = assay: Antimicrobial activity against Pseudomonas aeruginosa ATCC 27853 by CLSI broth microdilution method; format: functional
Pseudomonas aeruginosa [5] = assay: Antimicrobial activity against Pseudomonas aeruginosa expressing delta-mexB/delta-mexXY/delta-mexCD and delta-ampC mutant by CLSI broth microdilution method; format: functional
Pseudomonas aeruginosa [6] = assay: Antimicrobial activity against Pseudomonas aeruginosa expressing nalB/delta-mexXY/delta-mexCDoprJ/delta-ampC by CLSI broth microdilution method; format: functional
Pseudomonas aeruginosa [7] = assay: Antimicrobial activity against Pseudomonas aeruginosa expressing delta-mexB/mexXY/delta-ampDh2/ delta-ampD by CLSI broth microdilution method; format: functional
Escherichia coli [8] = assay: microbe, parasite or virus in culture
Description: Antimicrobial activity against wild type Escherichia coli by CLSI broth microdilution method

Escherichia coli [9] = assay: microbe, parasite or virus in culture; remark: listed apart in the source
Description: Antimicrobial activity against Escherichia coli expressing beta-lactamase CTXM-15 by CLSI broth microdilution method

Escherichia coli [10] = assay: microbe, parasite or virus in culture; remark: listed apart in the source
Description: Antimicrobial activity against Escherichia coli expressing beta-lactamase SHV-12 by CLSI broth microdilution method

Escherichia coli [11] = assay: microbe, parasite or virus in culture; remark: listed apart in the source
Description: Antimicrobial activity against Escherichia coli expressing beta-lactamase TEM-10 by CLSI broth microdilution method

Escherichia coli [12] = assay: microbe, parasite or virus in culture; remark: listed apart in the source
Description: Antimicrobial activity against Escherichia coli expressing beta-lactamase AmpC by CLSI broth microdilution method

Escherichia coli [13] = assay: microbe, parasite or virus in culture; remark: listed apart in the source
Description: Antimicrobial activity against Escherichia coli expressing beta-lactamase CMY-2 by CLSI broth microdilution method

Escherichia coli [14] = assay: Antimicrobial activity against Escherichia coli expressing beta-lactamase VEB-1 by CLSI broth microdilution method; format: functional
Escherichia coli [15] = assay: Antimicrobial activity against Escherichia coli expressing beta-lactamase NDM-5 by CLSI broth microdilution method; format: functional
[16] = biological target: GABA A receptor alpha-2/beta-2/gamma-2 (Homo sapiens) (UniProt P47870+P18507+P47869); assay: Inhibition of recombinant human GABA A alpha2beta2gamma2 receptor expressed in CHO-K1 cells at 300 uM incubated at room temperature for 15 mins before the GABA addition fluorescence spectrometry; format: cell-based
Escherichia coli [17] = assay: microbe, parasite or virus in culture; remark: listed apart in the source
Description: Antimicrobial activity against Escherichia coli expressing beta-lactamase CTXM-3 by CLSI broth microdilution method

Escherichia coli [18] = assay: microbe, parasite or virus in culture; remark: listed apart in the source
Description: Antimicrobial activity against Escherichia coli expressing beta-lactamase GES-1 by CLSI broth microdilution method

Escherichia coli [19] = assay: microbe, parasite or virus in culture; remark: listed apart in the source
Description: Antimicrobial activity against Escherichia coli expressing beta-lactamase IMI-1 by CLSI broth microdilution method

Escherichia coli [20] = assay: microbe, parasite or virus in culture; remark: listed apart in the source
Description: Antimicrobial activity against Escherichia coli expressing beta-lactamase KPC-3 by CLSI broth microdilution method

Escherichia coli [21] = assay: microbe, parasite or virus in culture; remark: listed apart in the source
Description: Antimicrobial activity against Escherichia coli expressing beta-lactamase KPC-4 by CLSI broth microdilution method

Escherichia coli [22] = assay: microbe, parasite or virus in culture; remark: listed apart in the source
Description: Antimicrobial activity against Escherichia coli expressing beta-lactamase KPC-8 by CLSI broth microdilution method

Escherichia coli [23] = assay: microbe, parasite or virus in culture; remark: listed apart in the source
Description: Antimicrobial activity against Escherichia coli expressing beta-lactamase NMC-A by CLSI broth microdilution method

Escherichia coli [24] = assay: microbe, parasite or virus in culture; remark: listed apart in the source
Description: Antimicrobial activity against Escherichia coli expressing beta-lactamase PER-1 by CLSI broth microdilution method

Escherichia coli [25] = assay: microbe, parasite or virus in culture; remark: listed apart in the source
Description: Antimicrobial activity against Escherichia coli expressing beta-lactamase PER-2 by CLSI broth microdilution method

Escherichia coli [26] = assay: microbe, parasite or virus in culture; remark: listed apart in the source
Description: Antimicrobial activity against Escherichia coli expressing beta-lactamase PER-4 by CLSI broth microdilution method

Escherichia coli [27] = assay: microbe, parasite or virus in culture; remark: listed apart in the source
Description: Antimicrobial activity against Escherichia coli expressing beta-lactamase VEB-4 by CLSI broth microdilution method

Escherichia coli [28] = assay: microbe, parasite or virus in culture; remark: listed apart in the source
Description: Antimicrobial activity against Escherichia coli expressing beta-lactamase VEB-7 by CLSI broth microdilution method

Escherichia coli [29] = assay: microbe, parasite or virus in culture; remark: listed apart in the source
Description: Antimicrobial activity against Escherichia coli expressing beta-lactamase TEM-16 by CLSI broth microdilution method

Escherichia coli [30] = assay: microbe, parasite or virus in culture; remark: listed apart in the source
Description: Antimicrobial activity against Escherichia coli expressing beta-lactamase TEM-24 by CLSI broth microdilution method

Escherichia coli [31] = assay: microbe, parasite or virus in culture; remark: listed apart in the source
Description: Antimicrobial activity against Escherichia coli expressing beta-lactamase TEM-121 by CLSI broth microdilution method

Escherichia coli [32] = assay: microbe, parasite or virus in culture; remark: listed apart in the source
Description: Antimicrobial activity against Escherichia coli expressing beta-lactamase GIM-1 by CLSI broth microdilution method

Escherichia coli [33] = assay: microbe, parasite or virus in culture; remark: listed apart in the source
Description: Antimicrobial activity against Escherichia coli expressing beta-lactamase IMP-1 by CLSI broth microdilution method

Escherichia coli [34] = assay: microbe, parasite or virus in culture; remark: listed apart in the source
Description: Antimicrobial activity against Escherichia coli expressing beta-lactamase SPM-1 by CLSI broth microdilution method

Escherichia coli [35] = assay: microbe, parasite or virus in culture; remark: listed apart in the source
Description: Antimicrobial activity against Escherichia coli expressing beta-lactamase VIM-1 by CLSI broth microdilution method

Escherichia coli [36] = assay: microbe, parasite or virus in culture; remark: listed apart in the source
Description: Antimicrobial activity against Escherichia coli expressing beta-lactamase MIR-1 by CLSI broth microdilution method

Escherichia coli [37] = assay: microbe, parasite or virus in culture; remark: listed apart in the source
Description: Antimicrobial activity against Escherichia coli expressing beta-lactamase P99 by CLSI broth microdilution method

Escherichia coli [38] = assay: microbe, parasite or virus in culture; remark: listed apart in the source
Description: Antimicrobial activity against Escherichia coli expressing beta-lactamase Oxa-10 by CLSI broth microdilution method

Escherichia coli [39] = assay: microbe, parasite or virus in culture; remark: listed apart in the source
Description: Antimicrobial activity against Escherichia coli expressing beta-lactamase Oxa-18 by CLSI broth microdilution method

Escherichia coli [40] = assay: microbe, parasite or virus in culture; remark: listed apart in the source
Description: Antimicrobial activity against Escherichia coli expressing beta-lactamase Oxa-23 by CLSI broth microdilution method

Escherichia coli [41] = assay: microbe, parasite or virus in culture; remark: listed apart in the source
Description: Antimicrobial activity against Escherichia coli expressing beta-lactamase Oxa-40 by CLSI broth microdilution method

Escherichia coli [42] = assay: microbe, parasite or virus in culture; remark: listed apart in the source
Description: Antimicrobial activity against Escherichia coli expressing beta-lactamase Oxa-48 by CLSI broth microdilution method

Escherichia coli [43] = assay: microbe, parasite or virus in culture; remark: listed apart in the source
Description: Antimicrobial activity against Escherichia coli expressing beta-lactamase Oxa-51 by CLSI broth microdilution method

Escherichia coli [44] = assay: microbe, parasite or virus in culture; remark: listed apart in the source
Description: Antimicrobial activity against Escherichia coli expressing beta-lactamase Oxa-146 by CLSI broth microdilution method

Escherichia coli [45] = assay: microbe, parasite or virus in culture; remark: listed apart in the source
Description: Antimicrobial activity against Escherichia coli expressing beta-lactamase Oxa-160 by CLSI broth microdilution method

Escherichia coli [46] = assay: microbe, parasite or virus in culture; remark: listed apart in the source
Description: Antimicrobial activity against Escherichia coli expressing beta-lactamase Oxa-181 by CLSI broth microdilution method

Escherichia coli [47] = assay: microbe, parasite or virus in culture; remark: listed apart in the source
Description: Antimicrobial activity against Escherichia coli expressing beta-lactamase Oxa-225 by CLSI broth microdilution method

Escherichia coli [48] = assay: Antimicrobial activity against Escherichia coli expressing beta-lactamase TEM-1 by CLSI broth microdilution method; format: functional
Enterobacteriaceae = assay: Antimicrobial activity against ESBL, KPC and MBL producing Enterobacteriaceae by CLSI broth microdilution method; format: functional
Escherichia coli [49] = assay: microbe, parasite or virus in culture; remark: listed apart in the source
Description: Antimicrobial activity against Escherichia coli expressing beta-lactamase SME-1 by CLSI broth microdilution method

Escherichia coli [50] = assay: microbe, parasite or virus in culture; remark: listed apart in the source
Description: Antimicrobial activity against Escherichia coli expressing beta-lactamase TEM-47 by CLSI broth microdilution method

Escherichia coli [51] = assay: microbe, parasite or virus in culture; remark: listed apart in the source
Description: Antimicrobial activity against Escherichia coli expressing beta-lactamase DHA by CLSI broth microdilution method

With `Nc1nc(/C(=N/OC2(C(=O)O)CC2)C(=O)N[C@@H]2C(=O)N(S(=O)(=O)O)[C@H]2CN2CCOC2=O)cs1` (stereo in doubt) the MIC (Escherichia coli [1]) was 0.5 µg/mL (≈ 0.964 µM), the MIC (Escherichia coli [2]) was 0.25 µg/mL (≈ 0.482 µM) and the half-life [3] was 18.8 days. It also gave an MIC (Pseudomonas aeruginosa [4]) of over 64 µg/mL, an MIC (Pseudomonas aeruginosa [5]) of 2 µg/mL (≈ 3.86 µM) and an MIC (Pseudomonas aeruginosa [6]) of over 64 µg/mL. It also gave an MIC (Pseudomonas aeruginosa [7]) of over 64 µg/mL, an MIC (Escherichia coli [8]) of 0.25 µg/mL (≈ 0.482 µM) and an MIC (Escherichia coli [9]) of 0.5 µg/mL (≈ 0.964 µM). It also gave an MIC (Escherichia coli [10]) of 64 µg/mL (≈ 123 µM), an MIC (Escherichia coli [11]) of 32 µg/mL (≈ 61.7 µM) and an MIC (Escherichia coli [12]) of 0.5 µg/mL (≈ 0.964 µM). For the same compound, the MIC (Escherichia coli [13]) was 2 µg/mL (≈ 3.86 µM).
Compound `C[C@@H](O)[C@H]1C(=O)N2C(C(=O)O)=C(SCCNC=N)C[C@H]12` [IMIPENEM ANHYDROUS] has an MIC (Escherichia coli [1]) of 2 to 16 µg/mL (≈ 6.68 to 53.4 µM), an MIC (Escherichia coli [14]) of 0.125 µg/mL (≈ 0.418 µM) and an MIC (Escherichia coli [2]) of 16 µg/mL (≈ 53.4 µM). The MIC (Escherichia coli [15]) was 16 µg/mL (≈ 53.4 µM), the inhibition [16] was 15% and the MIC (Escherichia coli [17]) was 0.25 µg/mL (≈ 0.835 µM). It also gave an MIC (Escherichia coli [18]) of 0.25 µg/mL (≈ 0.835 µM), an MIC (Escherichia coli [19]) of 2 µg/mL (≈ 6.68 µM) and an MIC (Escherichia coli [20]) of 2 µg/mL (≈ 6.68 µM). For the same compound, the MIC (Escherichia coli [21]) was 1 µg/mL (≈ 3.34 µM), the MIC (Escherichia coli [22]) was 2 µg/mL (≈ 6.68 µM) and the MIC (Escherichia coli [23]) was 2 µg/mL (≈ 6.68 µM). The MIC (Escherichia coli [24]) was 0.25 µg/mL (≈ 0.835 µM), the MIC (Escherichia coli [25]) was 0.25 µg/mL (≈ 0.835 µM) and the MIC (Escherichia coli [26]) was 0.25 µg/mL (≈ 0.835 µM). It also gave an MIC (Escherichia coli [10]) of 0.25 µg/mL (≈ 0.835 µM), an MIC (Escherichia coli [27]) of 0.25 µg/mL (≈ 0.835 µM) and an MIC (Escherichia coli [28]) of 0.25 µg/mL (≈ 0.835 µM). For the same compound, the MIC (Escherichia coli [11]) was 0.25 µg/mL (≈ 0.835 µM), the MIC (Escherichia coli [29]) was 0.25 µg/mL (≈ 0.835 µM) and the MIC (Escherichia coli [30]) was 0.25 µg/mL (≈ 0.835 µM). For the same compound, the MIC (Escherichia coli [31]) was 0.25 µg/mL (≈ 0.835 µM), the MIC (Escherichia coli [32]) was 1 µg/mL (≈ 3.34 µM) and the MIC (Escherichia coli [33]) was 2 µg/mL (≈ 6.68 µM). For the same compound, the MIC (Escherichia coli [34]) was 1 µg/mL (≈ 3.34 µM), the MIC (Escherichia coli [35]) was 2 µg/mL (≈ 6.68 µM) and the MIC (Escherichia coli [12]) was 0.25 µg/mL (≈ 0.835 µM). For the same compound, the MIC (Escherichia coli [13]) was 0.25 µg/mL (≈ 0.835 µM), the MIC (Escherichia coli [36]) was 0.5 µg/mL (≈ 1.67 µM) and the MIC (Escherichia coli [37]) was 0.25 µg/mL (≈ 0.835 µM). The MIC (Escherichia coli [38]) was 0.25 µg/mL (≈ 0.835 µM), the MIC (Escherichia coli [39]) was 0.25 µg/mL (≈ 0.835 µM) and the MIC (Escherichia coli [40]) was 1 µg/mL (≈ 3.34 µM). For the same compound, the MIC (Escherichia coli [41]) was 1 µg/mL (≈ 3.34 µM), the MIC (Escherichia coli [42]) was 1 µg/mL (≈ 3.34 µM) and the MIC (Escherichia coli [43]) was 0.25 µg/mL (≈ 0.835 µM). It also gave an MIC (Escherichia coli [44]) of 0.25 µg/mL (≈ 0.835 µM), an MIC (Escherichia coli [45]) of 1 µg/mL (≈ 3.34 µM) and an MIC (Escherichia coli [46]) of 1 µg/mL (≈ 3.34 µM). It also gave an MIC (Escherichia coli [47]) of 1 µg/mL (≈ 3.34 µM).
For `C[C@@H](O)[C@H]1C(=O)N2C(C(=O)O)=C(S[C@@H]3CN[C@H](C(=O)N(C)C)C3)[C@H](C)[C@H]12` [MEROPENEM], the MIC (Escherichia coli [1]) was 2 µg/mL (≈ 5.22 µM), the MIC (Escherichia coli [14]) was at most 0.06 µg/mL and the MIC (Escherichia coli [48]) was at most 0.06 µg/mL. The MIC (Escherichia coli [2]) was 16 to 64 µg/mL (≈ 41.7 to 167 µM), the MIC (Escherichia coli [15]) was 64 µg/mL (≈ 167 µM) and the half-life [3] was 3.25 days. For the same compound, the MIC90 (Enterobacteriaceae) was 32 µg/mL (≈ 83.4 µM), the MIC (Escherichia coli [8]) was at most 0.015 µg/mL and the MIC (Escherichia coli [17]) was at most 0.06 µg/mL. The MIC (Escherichia coli [9]) was at most 0.015 µg/mL, the MIC (Escherichia coli [18]) was at most 0.06 µg/mL and the MIC (Escherichia coli [19]) was 1 µg/mL (≈ 2.61 µM). For the same compound, the MIC (Escherichia coli [20]) was 2 µg/mL (≈ 5.22 µM), the MIC (Escherichia coli [21]) was 1 µg/mL (≈ 2.61 µM) and the MIC (Escherichia coli [22]) was 2 µg/mL (≈ 5.22 µM). The MIC (Escherichia coli [23]) was 2 µg/mL (≈ 5.22 µM), the MIC (Escherichia coli [24]) was at most 0.06 µg/mL and the MIC (Escherichia coli [25]) was at most 0.06 µg/mL. The MIC (Escherichia coli [26]) was at most 0.06 µg/mL, the MIC (Escherichia coli [10]) was at most 0.015 µg/mL and the MIC (Escherichia coli [49]) was 4 µg/mL (≈ 10.4 µM). It also gave an MIC (Escherichia coli [27]) of at most 0.06 µg/mL, an MIC (Escherichia coli [28]) of at most 0.06 µg/mL and an MIC (Escherichia coli [29]) of at most 0.06 µg/mL. The MIC (Escherichia coli [30]) was at most 0.06 µg/mL, the MIC (Escherichia coli [50]) was at most 0.06 µg/mL and the MIC (Escherichia coli [31]) was at most 0.06 µg/mL. It also gave an MIC (Escherichia coli [32]) of 1 µg/mL (≈ 2.61 µM), an MIC (Escherichia coli [33]) of 8 µg/mL (≈ 20.9 µM) and an MIC (Escherichia coli [34]) of 8 µg/mL (≈ 20.9 µM). It also gave an MIC (Escherichia coli [35]) of 4 µg/mL (≈ 10.4 µM), an MIC (Escherichia coli [12]) of at most 0.015 µg/mL and an MIC (Escherichia coli [51]) of at most 0.06 µg/mL. It also gave an MIC (Escherichia coli [13]) of at most 0.06 µg/mL, an MIC (Escherichia coli [36]) of at most 0.06 µg/mL and an MIC (Escherichia coli [37]) of at most 0.06 µg/mL. For the same compound, the MIC (Escherichia coli [38]) was at most 0.06 µg/mL, the MIC (Escherichia coli [39]) was at most 0.06 µg/mL and the MIC (Escherichia coli [40]) was 0.125 µg/mL (≈ 0.326 µM). The MIC (Escherichia coli [41]) was 1 µg/mL (≈ 2.61 µM), the MIC (Escherichia coli [42]) was 1 µg/mL (≈ 2.61 µM) and the MIC (Escherichia coli [43]) was at most 0.015 µg/mL. For the same compound, the MIC (Escherichia coli [44]) was 0.125 µg/mL (≈ 0.326 µM), the MIC (Escherichia coli [45]) was 0.25 µg/mL (≈ 0.652 µM) and the MIC (Escherichia coli [46]) was 0.5 µg/mL (≈ 1.3 µM). For the same compound, the MIC (Escherichia coli [47]) was 0.125 µg/mL (≈ 0.326 µM).
